Results from paper PMC5066224, “A Novel Resveratrol Based Tubulin Inhibitor Induces Mitotic Arrest and Activates Apoptosis in Cancer Cells” (Scientific Reports, 2016).

Legend:
[1] = test system: A549; test: Trypan blue dye exclusion cell viability assay; assay type: cell-based; conditions: Homo sapiens, 48 h
Procedure: (§1) The effect of SS28 on viability of CEM, Reh, Nalm6, SUDHL8, Molt4, A549, HeLa 293T, mouse embryonic fibroblast (MEF) and PBMC was determined by trypan blue dye exclusion assay as described previously. Briefly, cells (0.75 × 10^5 cells/ml) were treated with increasing concentrations of SS28 (1, 5, 10 and 20, μM) for 48 and 72 h. DMSO treated cells were used as the vehicle control. Cells were harvested and subjected to trypan blue assay. Data from a minimum of three independent experiments is presented as a histogram with error bars.

[2] = test system: CEM; test: Trypan blue dye exclusion cell viability assay; assay type: cell-based; conditions: Homo sapiens, CCRF-CEM, 48 h
Procedure: as §1

[3] = test system: HeLa cells; test: Trypan blue dye exclusion cell viability assay; assay type: cell-based; conditions: Homo sapiens, 48 h
Procedure: as §1

[4] = test system: Molt4; test: Trypan blue dye exclusion cell viability assay; assay type: cell-based; conditions: Homo sapiens, MOLT-4, 48 h
Procedure: as §1

[5] = test system: Nalm6; test: Trypan blue dye exclusion cell viability assay; assay type: cell-based; conditions: Homo sapiens, NALM-6, 48 h
Procedure: as §1

[6] = test system: Reh; test: Trypan blue dye exclusion cell viability assay; assay type: cell-based; conditions: Homo sapiens, 48 h
Procedure: as §1

[7] = test system: SUDHL8; test: Trypan blue dye exclusion cell viability assay; assay type: cell-based; conditions: Homo sapiens, SU-DHL-8, 48 h
Procedure: as §1

[8] = test system: mouse embryonic fibroblast cells (MEF); test: Trypan blue dye exclusion cell viability assay; assay type: cell-based; conditions: 48 h
Procedure: as §1

[9] = test system: peripheral blood mononuclear cells (PBMC); test: Trypan blue dye exclusion cell viability assay; assay type: cell-based; conditions: 48 h
Procedure: as §1

[10] = test system: HEK293T; test: Trypan blue dye exclusion cell viability assay; assay type: cell-based, human; conditions: 1-20 μM, compared to most of the cancer cells
Procedure: as §1

[11] = target: purified Tubulin; test: Fluorescence binding study, double reciprocal plot; conditions: double reciprocal plot of fluorescence data, 1:1 binding, 30 °C, ± SEM; read-out: dissociation constant (Kd)
Procedure: Fluorescence spectral measurements were performed using Infinite M200 PRO microplate reader (Tecan Group Ltd., Switzerland). Briefly, SS28 (10 μM) was preincubated with increasing concentration of Tubulin (10, 25, 50, 100, 500 and 1000 nM) at 30 °C for 30 min. SS28 Tubulin complex was then scanned for the emission spectra from 345 to 545 nm at 315 nm excitation range. Resulting fluorescence intensity was plotted as the function of wavelength.
The dissociation constant (Kd) was determined using double reciprocal plot of change in fluorescence of SS28 (1/Δ(F0-F)) as a function of protein concentration by the method of Benesi and Hildebrand assuming a 1:1 binding of SS28 to Tubulin[48]. The spectral measurements were recorded three times and SEM was calculated.

[12] = test system: CEM cells; test: Mitochondrial membrane potential (JC-1 staining, flow cytometry); assay type: cell-based, Human; conditions: CEM, 1, 5, 10, 20 μM, 48 h
Procedure: Flow cytometric analysis of cells stained with JC-1 was used to measure changes in mitochondrial transmembrane potential as described. Briefly, cells were seeded at a density of 1 × 10^5 cells/ml and treated with SS28 (1, 5, 10 and 20 μM). After 48 h, cells were harvested, washed and incubated with JC-1 (5,5′,6,6 tetrachloro-1,1′,3,3′-tetraethyl benzimidazol carbocyanine iodide; Calbiochem, USA) for 15 min. 2,4-Dinitrophenol-treated cells (2,4-DNP) served as the positive control. Cells were processed and analyzed by flow cytometry using CellQuest pro software with an excitation at 488 nm laser and emission at 530 nm. JC-1 monomers emit at 530 nm and J-aggregates emit at 590 nm.

[13] = test system: EAC cells tumor; test: Antitumor activity in EAC solid tumor mouse model; assay type: in vivo; conditions: EAC tumor BALB/c mice, 15 mg/kg oral, nine doses every alternate day from 12th day, up to 28 days
Procedure: EAC cells were collected from donor mice (Swiss albino) and resuspended in sterile saline. A fixed number of viable cells were injected into the peritoneal cavity of each recipient mouse and were allowed to multiply. The cells were withdrawn, diluted in saline and injected (15 × 10^5 cells/animal) into the right thigh tissue of experimental animals for developing solid tumor.
A total number of 30 BALB/c mice were divided into three batches and were used for the present study. EAC cells (15 × 10^5 cells/animal) were injected into right thigh for the development of solid tumor as described previously. Among the 10 animals in each batch, 5 animals served as tumor control and the rest 5 animals received SS28 treatment (15 mg/kg b.wt.) by oral administration using gastric gavage. The dose used was selected based on preliminary studies. The first dose was given after 12th day of tumor development (9 doses over a period of 3 weeks). The diameter of developing tumor was measured using vernier calipers at alternative days for entire life span of tumor animal and tumor volume was calculated using the formula V = 0.5 × a × b^2, where “a” and “b” indicates the major and minor diameter, respectively.

[14] = Toxicity evaluation in normal mice (body weight, haematology, liver and kidney function); assay type: in vivo, BALB/c mice; conditions: 9 doses
Procedure: A total number of 10 BALB/c mice were used for the study, of which 5 animals served as normal control while, remaining 5 were treated with SS28 (15 mg/kg). Body weight of each animal was monitored throughout the experiment and average body weight was calculated on 21st day of treatment. In order to evaluate the effect of SS28 on physiological functions, blood was collected (21st day) and analysed as described earlier. The blood […] was analyzed using Neubauer’s chamber, and mean values of total red blood cells (RBCs) and white blood cells (WBCs) were determined. Serum was separated and kidney and liver function tests were performed for each animal, to determine alkaline phosphatase (ALP), […] (ALT), creatinine and urea levels as described earlier. Values are presented as mean ± SEM for both the controls and SS28 administered mice.

[15] = In vivo pharmacokinetics, HPLC of plasma; design: species or system BALB/c mice; conditions: mice, intraperitoneal, 15 mg/kg
Procedure: Control and SS28 (15 mg/kg b.wt.) treated BALB/c mice were sacrificed and blood was collected at various time points (15, 30 min, 1 and 2 h; 2 each/time point) as described. Plasma (50 μl) was then extracted with acetonitrile, centrifuged (3,000 × g for 15 min) to remove precipitated proteins and the resulting supernatants were analyzed using HPLC (Waters, USA).
Standard solution of SS28 was prepared by dissolving increasing concentration (25 to 100 μM) of the compound in acetonitrile. Standard calibration curves were plotted using peak area against the concentration of the compound and the retention time of the compound was also determined. Plasma concentrations of the treated groups were extrapolated from standard curves constructed by linear regression in Graph-Pad Prism 4.0 software (GraphPad Software, Inc.).

[16] = normal BALB/c mice, 15 mg/kg, 21st day, mean ± SEM

Question: For `COc1cc(/C=C/c2ccc(C)cc2)cc(OC)c1OC` [SS28, (E)-1,2,3-trimethoxy-5-(4-methylstyryl)benzene], which IC50 [1] is on record?
Answer: The IC50 was 5.2 µM.

Question: What about the IC50 [2] of the same molecule?
Answer: The IC50 was 2.6 µM.

Question: What about the IC50 [3] of the same molecule?
Answer: The IC50 was 32.4 µM.

Question: And the IC50 [4]?
Answer: Its IC50 is 5.1 µM.

Question: What about the IC50 [5] of the same molecule?
Answer: Its IC50 is 21 µM.

Question: What about the IC50 [6] of the same molecule?
Answer: Its IC50 is 7.9 µM.

Question: And the IC50 [7]?
Answer: Its IC50 is 2.7 µM.

Question: What about the IC50 [8] of the same molecule?
Answer: Its IC50 is 5 µM.

Question: What about the IC50 [9] of the same molecule?
Answer: Its IC50 is over 35 µM.

Question: And the “cytotoxicity on normal cell line” value [10]?
Answer: Its value is “limited cytotoxicity”.

Question: And the Kd [11]?
Answer: Its Kd is 0.414 ± 0.11 µM.

Question: And the “mitochondrial membrane potential (JC-1 fluorescence)” value [12]?
Answer: The value was “concentration dependant increase in the green fluoresced cells”.

Question: What about the “tumor progression (tumor volume)” value [13] of the same molecule?
Answer: The value was “no further tumor progression”.

Question: And the body weight ([14]; normal BALB/c mice, 15 mg/kg oral)?
Answer: Its body weight is “no significant difference”.

Question: What about the “number of RBCs and WBCs versus control” value ([14]; normal BALB/c mice, 15 mg/kg, 21st day) of the same molecule?
Answer: The value was “no significant difference”.

Question: What about the RBC [14, 16] of the same molecule?
Answer: Its RBC is 6.43 ± 1.32 10^6 cells/mm^3.

Question: What about the WBC [14, 16] of the same molecule?
Answer: The WBC was 3.5 ± 0.99 10^3 cells/mm^3.

Question: What about the “ALP level versus control” value ([14]; serum, 15 mg/kg, 21st day) of the same molecule?
Answer: Its value is “slightly higher”.

Question: And the “level of ALT versus control” value ([14]; serum, 15 mg/kg, 21st day)?
Answer: The value was “no significant difference”.

Question: What about the “levels of creatinine and urea in the serum versus control” value ([14]; serum, 15 mg/kg, 21st day) of the same molecule?
Answer: Its value is “no significant difference”.

Question: And the “level of SS28 in the plasma” value ([15]; 15 min and 1 h post-treatment)?
Answer: The value was “detectable”.

Question: And the “level of SS28 in the plasma” value ([15]; 30 min after the injection)?
Answer: Its value is “significant increase”.

Question: What about the “level of SS28 in the plasma” value ([15]; after 1 h of treatment) of the same molecule?
Answer: The value was “significant decrease”.
